In patent US10772893B2, “2-(morpholin-4-yl)-1,7-naphthyridines” (BAYER PHARMA AKTIENGESELLSCHAFT, priority 2014, dated 2020) one finds IC50 data, which are given here for 19 compounds.

pIC50: −log10 of the molar value. Where two headings read alike, the source gives them in different places.

For one experiment, the target named is human ATR (Homo sapiens (Human), UniProt Q13535). Nature of the experiment: ATR binding assay (TR-FRET, displacement of fluorescent tracer A or B).
The test system of a further experiment is DU145 cells. Put plainly: Proliferation assay, crystal violet staining. The following applies: Homo sapiens, DU-145, 96 h, read-out: Inhibition of DU145 cell proliferation, DU145 cells, 4 days incubation.
The next experiment has as its system HeLa-MaTu-ADR cells. Nature of the experiment: Proliferation assay, crystal violet staining. The format is cell-based. To be noted: Homo sapiens, 96 h, 4 days incubation, read-out: Inhibition of HeLa-MaTu-ADR cell proliferation.
Another experiment relates to HeLa cells. Nature of the experiment: Proliferation assay, crystal violet staining. The following applies: Homo sapiens, 96 h.
Another experiment concerns NCI-H460 cells. Put plainly: Proliferation assay, crystal violet staining. The following applies: Homo sapiens, NCI-H460, 96 h, read-out: Inhibition of NCI-H460 cell proliferation, NCI-H460 cells, 4 days incubation.
In another experiment the test system is Caco-2 cells. Put plainly: Proliferation assay, crystal violet staining. To be noted: Homo sapiens, Caco-2, 96 h, 4 days incubation, read-out: Inhibition of Caco-2 cell proliferation. The experiment is classed as cell-based.
A further experiment deals with B16F10 cells. Put plainly: Proliferation assay, crystal violet staining. The following applies: B16-F10, 96 h, read-out: Inhibition of B16F10 cell proliferation.
Setting [1] is: read-out: Inhibition of HeLa cell proliferation, HeLa cells, 4 days incubation.

Sequence of human ATR (Q13535 other isoform, or with tags, fused parts or gaps): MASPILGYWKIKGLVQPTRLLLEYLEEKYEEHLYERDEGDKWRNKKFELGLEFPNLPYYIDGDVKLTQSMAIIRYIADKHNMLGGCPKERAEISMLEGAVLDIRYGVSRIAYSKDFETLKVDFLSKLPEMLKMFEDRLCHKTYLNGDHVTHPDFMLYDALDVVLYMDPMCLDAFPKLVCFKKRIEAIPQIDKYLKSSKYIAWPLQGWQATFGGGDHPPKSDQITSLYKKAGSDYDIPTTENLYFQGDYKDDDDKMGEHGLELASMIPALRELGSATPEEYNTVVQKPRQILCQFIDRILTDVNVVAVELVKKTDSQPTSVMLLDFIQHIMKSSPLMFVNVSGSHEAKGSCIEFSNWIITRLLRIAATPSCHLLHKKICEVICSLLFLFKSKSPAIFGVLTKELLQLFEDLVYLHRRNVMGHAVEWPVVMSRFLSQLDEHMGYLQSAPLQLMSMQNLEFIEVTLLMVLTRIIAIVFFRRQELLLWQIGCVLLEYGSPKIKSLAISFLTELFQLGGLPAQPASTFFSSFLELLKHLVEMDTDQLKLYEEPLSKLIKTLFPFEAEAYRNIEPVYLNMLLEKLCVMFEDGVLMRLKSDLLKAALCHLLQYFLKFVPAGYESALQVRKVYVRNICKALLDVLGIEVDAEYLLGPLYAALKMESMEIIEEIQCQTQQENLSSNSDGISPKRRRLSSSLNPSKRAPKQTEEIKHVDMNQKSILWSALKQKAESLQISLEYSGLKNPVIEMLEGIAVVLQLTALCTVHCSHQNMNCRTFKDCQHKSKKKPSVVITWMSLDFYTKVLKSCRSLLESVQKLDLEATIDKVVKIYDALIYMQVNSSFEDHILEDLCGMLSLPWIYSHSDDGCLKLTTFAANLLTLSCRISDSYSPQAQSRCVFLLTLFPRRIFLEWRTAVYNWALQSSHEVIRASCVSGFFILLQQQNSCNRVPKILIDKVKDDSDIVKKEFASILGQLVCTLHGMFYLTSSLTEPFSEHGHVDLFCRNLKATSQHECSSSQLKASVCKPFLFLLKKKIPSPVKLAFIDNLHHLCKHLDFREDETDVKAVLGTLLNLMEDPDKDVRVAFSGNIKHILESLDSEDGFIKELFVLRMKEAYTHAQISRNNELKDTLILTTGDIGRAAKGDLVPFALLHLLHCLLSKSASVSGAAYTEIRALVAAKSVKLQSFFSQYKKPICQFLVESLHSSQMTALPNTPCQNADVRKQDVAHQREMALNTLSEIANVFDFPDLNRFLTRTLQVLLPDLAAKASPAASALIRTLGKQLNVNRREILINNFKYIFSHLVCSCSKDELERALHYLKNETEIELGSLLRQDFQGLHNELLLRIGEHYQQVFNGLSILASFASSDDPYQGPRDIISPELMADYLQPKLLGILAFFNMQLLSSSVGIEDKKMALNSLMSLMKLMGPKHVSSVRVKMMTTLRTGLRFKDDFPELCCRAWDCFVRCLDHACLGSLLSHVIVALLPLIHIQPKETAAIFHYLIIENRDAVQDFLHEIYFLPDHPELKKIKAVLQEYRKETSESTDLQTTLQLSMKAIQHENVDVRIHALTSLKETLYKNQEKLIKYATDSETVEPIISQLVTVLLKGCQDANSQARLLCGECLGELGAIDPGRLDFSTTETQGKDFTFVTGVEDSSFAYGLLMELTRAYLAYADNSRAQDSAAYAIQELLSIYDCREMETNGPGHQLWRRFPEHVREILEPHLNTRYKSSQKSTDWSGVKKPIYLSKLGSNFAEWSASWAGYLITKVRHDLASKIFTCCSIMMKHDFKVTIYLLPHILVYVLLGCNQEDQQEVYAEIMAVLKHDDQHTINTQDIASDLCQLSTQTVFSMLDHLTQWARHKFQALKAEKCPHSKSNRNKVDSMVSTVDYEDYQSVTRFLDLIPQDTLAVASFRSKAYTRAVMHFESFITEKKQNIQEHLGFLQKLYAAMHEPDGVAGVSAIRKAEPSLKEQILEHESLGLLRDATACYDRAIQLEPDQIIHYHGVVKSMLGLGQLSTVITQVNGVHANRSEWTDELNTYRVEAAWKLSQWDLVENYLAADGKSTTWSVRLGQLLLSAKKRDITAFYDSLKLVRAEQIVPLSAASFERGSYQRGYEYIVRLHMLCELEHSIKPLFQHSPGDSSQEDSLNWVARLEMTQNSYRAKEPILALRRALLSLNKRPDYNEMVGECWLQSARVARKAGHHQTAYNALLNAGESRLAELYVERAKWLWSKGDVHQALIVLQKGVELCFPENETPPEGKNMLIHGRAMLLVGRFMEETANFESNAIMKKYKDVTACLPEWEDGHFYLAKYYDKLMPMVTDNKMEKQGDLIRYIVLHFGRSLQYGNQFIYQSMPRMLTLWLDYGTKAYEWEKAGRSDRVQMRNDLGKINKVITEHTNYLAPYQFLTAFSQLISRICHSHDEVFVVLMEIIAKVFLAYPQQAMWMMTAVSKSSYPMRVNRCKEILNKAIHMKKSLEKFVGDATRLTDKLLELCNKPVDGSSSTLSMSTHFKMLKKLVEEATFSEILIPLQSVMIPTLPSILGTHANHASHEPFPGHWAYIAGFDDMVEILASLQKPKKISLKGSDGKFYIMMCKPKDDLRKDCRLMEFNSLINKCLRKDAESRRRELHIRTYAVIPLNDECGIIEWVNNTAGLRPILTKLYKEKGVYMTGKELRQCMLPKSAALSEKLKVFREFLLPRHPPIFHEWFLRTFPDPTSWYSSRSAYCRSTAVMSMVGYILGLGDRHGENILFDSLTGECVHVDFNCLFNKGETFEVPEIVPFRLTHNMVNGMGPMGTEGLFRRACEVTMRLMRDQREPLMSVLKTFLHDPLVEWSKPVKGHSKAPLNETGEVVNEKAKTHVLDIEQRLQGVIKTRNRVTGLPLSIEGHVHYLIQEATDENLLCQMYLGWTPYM
Sequence of human ATR (Q8WXE1 other isoform, or with tags, fused parts or gaps partner): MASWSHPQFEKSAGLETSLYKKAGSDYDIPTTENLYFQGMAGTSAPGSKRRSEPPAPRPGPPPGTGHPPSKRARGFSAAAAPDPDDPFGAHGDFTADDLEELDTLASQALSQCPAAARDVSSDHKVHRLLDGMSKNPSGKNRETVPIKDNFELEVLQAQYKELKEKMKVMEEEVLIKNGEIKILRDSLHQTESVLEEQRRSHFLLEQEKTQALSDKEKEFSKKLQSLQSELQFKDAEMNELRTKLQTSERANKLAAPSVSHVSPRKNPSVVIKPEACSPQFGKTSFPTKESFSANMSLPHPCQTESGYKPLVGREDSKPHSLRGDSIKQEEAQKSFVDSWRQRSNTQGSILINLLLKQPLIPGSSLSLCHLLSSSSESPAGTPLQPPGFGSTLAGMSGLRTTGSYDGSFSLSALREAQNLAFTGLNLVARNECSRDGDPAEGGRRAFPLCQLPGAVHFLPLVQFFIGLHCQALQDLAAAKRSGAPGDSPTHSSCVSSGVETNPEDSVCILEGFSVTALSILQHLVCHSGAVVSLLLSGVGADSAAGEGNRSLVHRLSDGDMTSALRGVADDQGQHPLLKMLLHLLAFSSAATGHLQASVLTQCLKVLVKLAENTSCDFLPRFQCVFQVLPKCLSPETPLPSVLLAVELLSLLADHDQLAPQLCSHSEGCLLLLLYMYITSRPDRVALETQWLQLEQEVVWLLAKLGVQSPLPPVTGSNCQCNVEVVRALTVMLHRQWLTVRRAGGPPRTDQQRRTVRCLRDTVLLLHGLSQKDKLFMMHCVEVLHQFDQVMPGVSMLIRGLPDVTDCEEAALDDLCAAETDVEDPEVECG
Procedure for B16F10 cells: Human tumour cells (Table 8) were originally obtained from the American Type Culture Collection (ATCC), the Deutsche Sammlung von Mikroorganismen and Zellkulturen (DSMZ, German Collection of Microorganisms and Cell Cultures), or Epo GmbH Berlin. […] After 24 hours, the cells of one plate (zero plate) were dyed with crystal violet (see below), whereas the medium of the other plates was replaced with fresh culture medium (200 μl) to which the test substances were added in various concentrations (0 μM, and also in the range of 0.001-10 μM; the final concentration of the solvent dimethyl sulphoxide was 0.1 or 0.5%). The cells were incubated for 4 days in the presence of the test substances. […] After washing the fixed cells three times with water, the plates were dried at room temperature. The cells were stained by adding 100 μl/measurement point of a 0.1% strength crystal violet solution (pH adjusted to pH 3 by adding acetic acid). After washing the cells three times with water, the plates were dried at room temperature. The dye was dissolved by adding 100 μl/measurement point of a 10% strength acetic acid solution. […] The percentage change in cell growth was calculated by normalizing the measured values to the absorbance values of the zero plate (=0%) and the absorbance of the untreated (0 W) cells (=100%). The IC50 values were determined by means of a four parameter fit.
Procedure for Caco-2 cells: (§1) After 24 hours, the cells of one plate (zero plate) were dyed with crystal violet (see below), whereas the medium of the other plates was replaced with fresh culture medium (200 μl) to which the test substances were added in various concentrations (0 μM, and also in the range of 0.001-10 μM; the final concentration of the solvent dimethyl sulphoxide was 0.1 or 0.5%). The cells were incubated for 4 days in the presence of the test substances. […] After washing the fixed cells three times with water, the plates were dried at room temperature. The cells were stained by adding 100 μl/measurement point of a 0.1% strength crystal violet solution (pH adjusted to pH 3 by adding acetic acid). After washing the cells three times with water, the plates were dried at room temperature. The dye was dissolved by adding 100 μl/measurement point of a 10% strength acetic acid solution. […] The percentage change in cell growth was calculated by normalizing the measured values to the absorbance values of the zero plate (=0%) and the absorbance of the untreated (0 W) cells (=100%). The IC50 values were determined by means of a four parameter fit.
Procedure for DU145 cells: as §1
Procedure for HeLa-MaTu-ADR cells: as §1
Procedure for NCI-H460 cells: as §1
Source text for human ATR: To determine of binding activity of the test compounds, full-length human ATR protein was expressed and purified together with ATRIP as described above. Furthermore, a fluorescently labelled compound (either tracer A or B as described above) was used as a tracer molecule. Detection of the binding event of the tracer was achieved by time-resolved fluorescence energy transfer (TR-FRET). We used an anti-GST-Terbium antibody (CisBio) that binds to the GST-tag at the N-terminus of ATR-kinase. […] Displacement of the fluorescent tracer by a test compound leads to a reduction of the TR-FRET-signal.
For the assay 50 nl of a 100-fold concentrated solution of the test compound in DMSO was pipetted into a black low volume 384 well microtiter plate (MTP, Greiner Bio-One, Frickenhausen, Germany). […] The ATR-working solution was incubated for 30 min at 22° C. prior to dispensing to pre-form the complex of antiGST-Tb+GST-ATR+ATRIP. Then, 3 μl of the ATR-working solution were added to the test compound and the mixture was incubated for 10 min at 22° C. to allow pre-binding of the test compounds to ATR/ATRIP. Then, 2 μl of a 100 nM solution of either tracer A or B in assay buffer were added to the ATR-working solution. The resulting mixture was incubated for 30 min at 22° C. […] IC50 values were calculated by a 4 parameter fit using standard software (GraphPad prism or equivalent).

For `CC1(C)C[C@@H]2C[C@@](C)(CN2c2cc(N3CCOCC3)nc3c(-c4ccn[nH]4)nccc23)C1` (stereo in doubt) [Example 421, 2-(morpholin-4-yl)-8-(1H-pyrazol-5-yl)-4-[1,3,3-trimethyl-6-azabicyclo[3.2.1]oct-6-yl]-1,7-naphthyridine], the pIC50 at human ATR was 5.75.
As to `Cc1cc(S(C)(=O)=O)ncc1-c1cc(N2CCOC[C@H]2C)nc2c(-c3ccn[nH]3)nccc12` [Example 79, 4-[4-methyl-6-(methylsulfonyl)pyridin-3-yl]-2-[(3R)-3-methylmorpholin-4-yl]-8-(1H-pyrazol-5-yl)-1,7-naphthyridine], the pIC50 with DU145 cells is 6.18; in the experiment on HeLa-MaTu-ADR cells it was 5.64; in the experiment on HeLa cells (setting [1]), 6.52; in the experiment with NCI-H460 cells, 7.03; with Caco-2 cells, 6.06.
For `Cc1ccc(-c2cc(N3CCOC[C@H]3C)nc3c(-c4ccn[nH]4)nccc23)cn1` [Example 88, 2-[(3R)-3-methylmorpholin-4-yl]-4-(6-methylpyridin-3-yl)-8-(1H-pyrazol-5-yl)-1,7-naphthyridine], in that order: 6.98, 6.54, 6.80, 7.09 and 6.54.
Regarding `CCOP(C)(=O)c1cc(N2CCOC[C@H]2C)nc2c(-c3ccn[nH]3)nccc12` (stereo partly drawn) [Example 125, ethyl methyl{2-[(3R)-3-methylmorpholin-4-yl]-8-(1H-pyrazol-5-yl)-1,7-naphthyridin-4-yl}phosphinate], the pIC50 is 6.15 in the experiment with DU145 cells; < 5.52 in the experiment on HeLa-MaTu-ADR cells; 6.15 in the experiment on HeLa cells (read-out: Inhibition of HeLa cell proliferation); < 5.52 with B16F10 cells; < 5.52 with Caco-2 cells.
In the case of `CCS(=O)(CC)=Nc1cc(N2CCOC[C@H]2C)nc2c(-c3ccn[nH]3)nccc12` [Example 126, 4-{[diethyl(oxido)-λ^6-sulfanylidene]amino}-2-[(3R)-3-methylmorpholin-4-yl]-8-(1H-pyrazol-5-yl)-1,7-naphthyridine], the pIC50 with DU145 cells was 7.03; in the experiment on HeLa-MaTu-ADR cells it was 6.23; with HeLa cells (setting [1]), 6.77; in the experiment with NCI-H460 cells, 7.05; in the experiment on Caco-2 cells, 6.47.
The matching figures for `C[C@@H]1COCCN1c1cc(N=S2(=O)CCCC2)c2ccnc(-c3ccn[nH]3)c2n1` [Example 137, N-{2-[(3R)-3-methylmorpholin-4-yl]-8-(1H-pyrazol-5-yl)-1,7-naphthyridin-4-yl}tetrahydro-1H-1λ^4-thiophen-1-imine 1-oxide]: 6.84, 6.10, 6.42, 6.82 and 6.26.
`C[C@@H]1COCCN1c1cc(N2CCOCC2)c2ccnc(-c3ccn[nH]3)c2n1` [Example 145, 2-[(3R)-3-methylmorpholin-4-yl]-4-(morpholin-4-yl)-8-(1H-pyrazol-5-yl)-1,7-naphthyridine]: the pIC50 with DU145 cells was 7.52; in the experiment with HeLa-MaTu-ADR cells, 6.28; in the experiment with HeLa cells (setting [1]), 6.61; in the experiment on NCI-H460 cells, 7.04; with Caco-2 cells, 6.31.
For `CC(C)S(=O)(=O)c1ccc(-c2cc(N3CCOC[C@H]3C)nc3c(-c4ccn[nH]4)nccc23)cc1` [Example 151, 4-[4-(isopropylsulfonyl)phenyl]-2-[(3R)-3-methylmorpholin-4-yl]-8-(1H-pyrazol-5-yl)-1,7-naphthyridine], in that order: 5.72, 5.67, 6.04, 6.17 and 5.69.
For `C[C@@H]1COCCN1c1cc(N2CCN(C)C(=O)C2)c2ccnc(-c3ccn[nH]3)c2n1` [Example 157, 1-methyl-4-{2-[(3R)-3-methylmorpholin-4-yl]-8-(1H-pyrazol-5-yl)-1,7-naphthyridin-4-yl}piperazin-2-one], in that order: < 5.52, < 5.52, 6.06, < 5.52 and < 5.52.
In the case of `CC(C)[S+]([O-])c1cc(N2CCOCC2)nc2c(-c3ccn[nH]3)nccc12` (stereo not drawn) [Example 196, 2-(morpholin-4-yl)-4-[propan-2-ylsulfinyl]-8-(1H-pyrazol-5-yl)-1,7-naphthyridine], the pIC50 was 6.84 in the experiment on DU145 cells; < 5.52 in the experiment with HeLa-MaTu-ADR cells; 5.99 with HeLa cells (setting [1]); 6.54 with NCI-H460 cells; 6.06 in the experiment with Caco-2 cells.
In the case of `C[C@@H]1COCCN1c1cc(OCCCS(C)(=O)=O)c2ccnc(-c3ccn[nH]3)c2n1` [Example 197, 2-[(3R)-3-methylmorpholin-4-yl]-4-[3-(methylsulfonyl)propoxy]-8-(1H-pyrazol-5-yl)-1,7-naphthyridine], the pIC50 in the experiment with DU145 cells is 6.89; in the experiment on HeLa-MaTu-ADR cells, < 5.52; in the experiment with HeLa cells (setting [1]) it was 6.00; with NCI-H460 cells it was 6.29; in the experiment with Caco-2 cells it was < 5.52.
On to `CC(C)S(=O)(=O)c1cc(N2CCOCC2)nc2c(-c3ccn[nH]3)nccc12` [Example 199, 2-(morpholin-4-yl)-4-(propan-2-ylsulfonyl)-8-(1H-pyrazol-5-yl)-1,7-naphthyridine], for which the pIC50 in the experiment on DU145 cells is 6.61; with HeLa-MaTu-ADR cells it was 6.02; in the experiment with HeLa cells (setting [1]) it was 6.07; in the experiment on NCI-H460 cells it was 6.49; with Caco-2 cells, 6.15.
As for `C[C@@H]1COCCN1c1cc(-c2ccn[nH]2)c2ccnc(-c3ccn[nH]3)c2n1` [Example 205, 2-[(3R)-3-methylmorpholin-4-yl]-4,8-di(1H-pyrazol-5-yl)-1,7-naphthyridine], the pIC50 was 6.19 with DU145 cells; 5.83 in the experiment on HeLa-MaTu-ADR cells; 6.17 in the experiment with HeLa cells (setting [1]); 6.66 in the experiment with NCI-H460 cells; 5.91 with Caco-2 cells.
As for `O=S1(=O)CCCN1c1cc(N2CCOCC2)nc2c(-c3ccn[nH]3)nccc12` [Example 216, 4-(1,1-dioxido-1,2-thiazolidin-2-yl)-2-(morpholin-4-yl)-8-(1H-pyrazol-5-yl)-1,7-naphthyridine], the pIC50 in the experiment on DU145 cells is 5.78; with HeLa-MaTu-ADR cells, < 5.52; in the experiment on HeLa cells (setting [1]) it was 6.00; with NCI-H460 cells, 5.95; in the experiment on Caco-2 cells it was < 5.52.
As for `COc1ncccc1-c1cc(N2CCOC[C@H]2C)nc2c(-c3ccn[nH]3)nccc12` [Example 220, 4-(2-methoxypyridin-3-yl)-2-[(3R)-3-methylmorpholin-4-yl]-8-(1H-pyrazol-5-yl)-1,7-naphthyridine], the pIC50 was 6.48 with DU145 cells; 6.00 in the experiment with HeLa-MaTu-ADR cells; 6.22 with HeLa cells (setting [1]); 6.52 in the experiment with NCI-H460 cells; < 6.00 with Caco-2 cells.
`C[C@@H]1COCCN1c1cc(-c2ccc(F)nc2F)c2ccnc(-c3ccn[nH]3)c2n1` [Example 228, 4-(2,6-difluoropyridin-3-yl)-2-[(3R)-3-methylmorpholin-4-yl]-8-(1H-pyrazol-5-yl)-1,7-naphthyridine]: the pIC50 in the experiment with DU145 cells was 6.50; in the experiment with HeLa-MaTu-ADR cells, 6.23; in the experiment on HeLa cells (setting [1]), 6.65; with NCI-H460 cells it was 6.63; with Caco-2 cells, 6.20.
Take `CC(C)S(=O)(=Nc1cc(N2CCOC[C@H]2C)nc2c(-c3ccn[nH]3)nccc12)c1ccc(Br)cc1` (stereo partly drawn) [Example 275]: the pIC50 at human ATR was 6.52.
Take `C[C@@H]1COCCN1c1cc(C2(S(C)(=O)=O)CC2)c2ccnc(-c3ccn[nH]3)c2n1` [Example 286, 2-[(3R)-3-methylmorpholin-4-yl]-4-[1-(methylsulfonyl)cyclopropyl]-8-(1H-pyrazol-5-yl)-1,7-naphthyridine]: the pIC50 with DU145 cells was 7.31; in the experiment with HeLa-MaTu-ADR cells it was 6.05; with HeLa cells (setting [1]), 6.53; in the experiment with NCI-H460 cells, 7.12; with Caco-2 cells, 6.28.
The matching figures for `Cn1nccc1-c1cc(N2CCOCC2)nc2c(-c3ccn[nH]3)nccc12` [Example 348, 4-(1-methyl-1H-pyrazol-5-yl)-2-(morpholin-4-yl)-8-(1H-pyrazol-5-yl)-1,7-naphthyridine]: 6.29, 6.03, 6.21, 6.40 and 6.09.
